From patent US20230270764A1, “COMPOSITION COMPRISING CANNABINOIDS, TERPENES, AND FLAVONOIDS FOR TREATING DEPRESSION” (priority 2020, published 2023) come the findings set out here.

The subject of one assay is hippocampal microglia. Description: Hippocampal microglia density and morphology (Iba-1 immunohistochemistry) in LPS-injected mice. The assay is classed as in vivo. The procedure:
Given the suppressive effect of CBD on hippocampal microglia numbers in LPS-injected mice, the effect of Cannabidiolic acid (CBDA), as well as a combination of CBD with the flavonoid kaempferol, was examined to determine if they also produce a similar effect. Mice were firstly injected (i.p.) with CBDA or CBD/kaempferol combination, and 1 hr later were injected with LPS ([…] in 10 ml/kg saline). Brains were removed 24 hr later and prepared for immunohistochemistry, using the microglia marker Iba-1.

The next assay concerns LPS-injected mice. Description: Body weight change and food consumption in the LPS-induced model of depression. The assay is classed as in vivo. The text has this:
Animals were housed 2-3/cage, kept in an air-conditioned room (23+°C) and given ad libitum access to food and water. The mice were kept in a reversed light/dark cycle, with lights off from 7 a.m. to 7 p.m. All experiments were approved by the Hebrew University of Jerusalem Ethics Committee on Animal Care and Use. In preparation for the Sucrose Preference Test, mice were habituated 2-3 times to sucrose drinking, by exposing them overnight to two graduated tubes, one containing water and the other containing sucrose solution (1%, w/v). Water and sucrose consumption were measured, and sucrose preference was computed by dividing the amount of sucrose consumed by drinking (ml sucrose) by the total drinking volume (ml of sucrose + water). One day later, the weight of the mice and the food in their cages was weighed for later analysis of food consumption and body weight changes. Groups of mice were injected intraperitoneally (i.p.) with either vehicle (cremophor, ethanol and PBS, 1:1:18 (v/v/v)) or a cannabinoid-based formulation (by itself or with another cannabinoid, or a terpene or a flavonoid). One hour later, each of these groups was injected with LPS (330 µg/kg). All injections were administered at a dose of 10 ml/kg. Four hours following the LPS injection, mice were tested in the Open-Field Test. In this test, the measured locomotor activity reflects not only motor capacity, but particularly the innate motivation for spatial exploration (which increases the distance travelled) and the anxiety level (which reduces the distance travelled, in general, and particularly the distance and time spent in the center of the open field). Each subject was placed near one of the walls of a white 50 X 50 cm^2 arena with 40 cm high walls. The distance travelled (cm), the velocity of the movement (cm/second), the time spent (seconds), distance travelled (cm) in the center area of the arena, as well as the number of entries from the perimeter area into the center of the arena were automatically measured over a 4-minute period, using EthoVision XT video tracking system and software (Noldus, The Netherlands). Twenty-four hours after the LPS injection, mice were tested in the Social Exploration Test. In this test, the subject was placed in an observation cage containing a small metal wire mesh cage with a conspecific mouse inside it. Social exploration, defined as the time of near contact between the nose of the subject and the juvenile in the small cage was recorded for 4 min, using computerized in-house software. Sucrose preference was assessed, as described above, between 8 to 27 hr post LPS injection. Body weight and weight of the food were measured two hours before the LPS injection, and again after 24 hours, and the change in body weight and food consumption were calculated.
This particular study was conducted in several experimental cohorts, and not all compounds and all measures were studied in all cohort. However, each cohort included a vehicle-treated group; therefore, the scores in each behavioral test were converted to % of mean vehicle-treated group in every individual cohort/experiment. Statistical comparisons were computed using SPSS software and consisted of one-way analyses of variance (ANOVA), followed by post-hoc comparisons with the Student-Newman-Keuls method.

The mark [1] stands for this setting: young-adult female mice, CBDA 0.5, 1, 5 mg/kg.
The mark [2] stands for this setting: young-adult male mice, CBDA 1, 5 mg/kg, CBD 25 and CBDA 1 mg/kg.
Where [3] appears, read: young-adult male mice, CBD 30 mg/kg i.p. 3 consecutive days.

On to `C=C(C)[C@@H]1CCC(C)=C[C@H]1c1c(O)cc(CCCCC)c(C(=O)O)c1O` [CBDA, Cannabidiolic acid], for which the “hippocampal microglia density vs Vehicle” value with hippocampal microglia (young-adult female mice, CBDA 1 mg/kg (not 0.5 or 5)) is on record as “significantly reduced”; with hippocampal microglia (young-adult male mice, CBDA 1 mg/kg (not 5)) it was “significantly reduced”. The “number of branch points of microglia processes vs Vehicle” value with hippocampal microglia (young-adult female mice, CBDA 5 mg/kg) is on record as “significantly increased”; in the assay with hippocampal microglia (young-adult male mice, CBDA 1 mg/kg), “significantly increased”. The “microglia soma area and processes length” value with hippocampal microglia (setting [1]) and with hippocampal microglia (setting [2]) was “no significant difference” in each case. The “food consumption vs Vehicle-treated LPS-injected mice” value in the assay with LPS-injected mice (young-adult female mice, CBDA 1 mg/kg) is recorded as “significantly increased”. The body weight reduction result with LPS-injected mice (setting [1]) is on record as “no significant difference”. Moreover, the “body weight reduction and food consumption” value in the assay with LPS-injected mice (setting [2]) is reported as “no significant differences”.

Consider `C=C(C)[C@@H]1CCC(C)=C[C@H]1c1c(O)cc(CCCCC)cc1O` [CBD, cannabidiol], for which the “hippocampal microglia density, CBD- vs Veh-treated LPS mice” value with hippocampal microglia (setting [3]) is recorded as “significantly reduced”. Further, the “food consumption over 24 hr vs vehicle-treated group” value in the assay with LPS-injected mice (Example 9, male C57BL/6, i.p. 1 h before LPS 330 µg/kg, mg/kg: CBD 30, CBD 30 plus THC 10, cannabinol 10, CBD 30 plus BCP 50) is “consumed significantly more food”. The “LPS-induced body weight loss and decrease in food consumption” value in the assay on LPS-injected mice (adult (6-9 months-old) male mice, acute CBD) is reported as “not influenced by CBD administration”. Besides, the “food consumption and body weight” value in the assay with LPS-injected mice (adult and young adult female mice, acute CBD, saline or LPS) was “None of these parameters was influenced by treatment with CBD”. In the assay with LPS-injected mice (adult female mice, acute CBD (#p<0.05)), the “food consumption among the LPS-injected groups” value was “significant difference between the CBD- and vehicle-treated group”. Further, the “LPS-induced decreases in body weight and food consumption” value with LPS-injected mice (young adult (2.5-3 months old) male mice, acute CBD) is recorded as “None of these parameters was influenced by treatment with CBD”. For the same compound, in the assay with LPS-injected mice (setting [3]), the LPS-induced body-weight loss entry is “no effects”.
